For the assay, the target named is T1, LXRβ (Homo sapiens, UniProt P55055).
T1 construct: Co-transfection expression plasmids, comprising full-length LXRα (pCMX-h LXRα[…] or LXRβ (pCMX-hLXRβ)); expressed in transfected cells; host or cells: CV-1 African Green Monkey Kidney Cells
T1 sequence (P55055 1-460): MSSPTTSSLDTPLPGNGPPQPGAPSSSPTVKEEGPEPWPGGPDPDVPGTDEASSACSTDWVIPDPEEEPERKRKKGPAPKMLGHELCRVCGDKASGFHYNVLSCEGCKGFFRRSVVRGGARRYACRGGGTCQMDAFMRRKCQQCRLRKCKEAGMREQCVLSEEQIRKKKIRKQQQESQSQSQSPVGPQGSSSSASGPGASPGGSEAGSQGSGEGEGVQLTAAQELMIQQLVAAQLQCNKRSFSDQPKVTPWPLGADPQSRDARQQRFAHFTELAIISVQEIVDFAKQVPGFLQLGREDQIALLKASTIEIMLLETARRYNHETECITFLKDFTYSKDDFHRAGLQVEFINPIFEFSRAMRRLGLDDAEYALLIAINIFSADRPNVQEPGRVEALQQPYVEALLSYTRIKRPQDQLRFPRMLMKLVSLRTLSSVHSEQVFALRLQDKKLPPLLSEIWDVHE
T1 sequence (P19793 1-462 partner): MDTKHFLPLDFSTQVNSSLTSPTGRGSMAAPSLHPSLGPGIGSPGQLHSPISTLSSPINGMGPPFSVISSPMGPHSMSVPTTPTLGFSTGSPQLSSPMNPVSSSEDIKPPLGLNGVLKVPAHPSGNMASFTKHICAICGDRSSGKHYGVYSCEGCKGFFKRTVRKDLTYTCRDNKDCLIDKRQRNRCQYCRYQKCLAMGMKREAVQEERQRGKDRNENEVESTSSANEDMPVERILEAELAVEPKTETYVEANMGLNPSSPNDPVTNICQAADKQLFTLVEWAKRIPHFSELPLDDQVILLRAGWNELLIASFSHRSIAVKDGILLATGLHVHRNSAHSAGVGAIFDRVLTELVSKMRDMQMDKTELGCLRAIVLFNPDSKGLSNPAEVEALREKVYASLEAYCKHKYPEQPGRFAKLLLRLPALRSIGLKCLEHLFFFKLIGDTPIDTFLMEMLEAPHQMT
In words: Co-transfection assay (LXRE luciferase reporter), LXRβ. Format: cell-based. The note with it: for EC50: CV-1 cells transfected with pCMX-hLXRβ and LXREx1-Tk-Luciferase, 20 hours incubation; for Emax: LXRβ co-transfection, relative to high control 1-(2,4-difluorobenzyl)-2-oxo-6-(4-phenoxyphenyl)-4-(trifluoromethyl)-1,2-dihydropyridine-3-carbonitrile, read-out: % Efficacy. Summed up:
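CV-1 cells transiently co-transfected with full-length human LXRβ expression plasmid, LXREx1-Tk-luciferase reporter and β-galactosidase control, then exposed to compound for 20 h at 37 °C. Luciferase luminescence read; EC50 from 11-point, ½-log dose–response fit, efficacy relative to high-control agonist maximum.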

In general, EC50 refers to the concentration that produces a half-maximal response. Regarding `Cc1nc(C(C)(F)F)cn1-c1ccc(-c2cccc(S(C)(=O)=O)c2)cc1-n1nncc1-c1ccc(Cl)cc1Cl` [Example 180, 5-(2,4-dichlorophenyl)-1-{4-[4-(1,1-difluoroethyl)-2-methyl-1H-imidazol-1-yl]-3′-(methylsulfonyl)biphenyl-3-yl}-1H-1,2,3-triazole], it took 606 nM to reach a half-maximal effect (EC50) and the Emax stood at 48%.
For `Cc1nc(C(C)(F)F)cn1-c1ccc(-c2cccc(S(=O)(=O)N(C)C)c2)cc1-n1nncc1-c1ccc(OC(F)(F)F)cc1` [Example 181, 4′-[4-(1,1-difluoroethyl)-2-methyl-1H-imidazol-1-yl]-N,N-dimethyl-3′-(5-{4-[(trifluoromethyl)oxy]phenyl}-1H-1,2,3-triazol-1-yl)biphenyl-3-sulfonamide], in that order: 502 nM and 70%.
Taken in the same sequence, the figures for `CCC(F)(F)c1cn(-c2ccc(-c3cccc(S(=O)(=O)N(C)C)c3)cc2-n2nncc2-c2ccc(OC(F)(F)F)cc2)c(C)n1` [Example 182, 4′-[4-(1,1-difluoropropyl)-2-methyl-1H-imidazol-1-yl]-N,N-dimethyl-3′-(5-{4-[(trifluoromethyl)oxy]phenyl}-1H-1,2,3-triazol-1-yl)biphenyl-3-sulfonamide] were 494 nM and 78%.
Taken in the same sequence, the figures for `CCC(F)(F)c1cn(-c2ccc(-c3cccc(S(N)(=O)=O)c3)cc2-n2nncc2-c2ccc(OC(F)(F)F)cc2)c(C)n1` [Example 183, 4′-[4-(1,1-difluoropropyl)-2-methyl-1H-imidazol-1-yl]-3′-(5-{4-[(trifluoromethyl)oxy]phenyl}-1H-1,2,3-triazol-1-yl)biphenyl-3-sulfonamide] were 1480 nM and 74%.
In the case of `CCC(F)(F)c1cn(-c2ccc(-c3cccc(S(C)(=O)=O)c3)cc2-n2nncc2-c2ccc(OC(F)(F)F)cc2)c(C)n1` [Example 184, 1-{4-[4-(1,1-difluoropropyl)-2-methyl-1H-imidazol-1-yl]-3′-(methylsulfonyl)biphenyl-3-yl}-5-{4-[(trifluoromethyl)oxy]phenyl}-1H-1,2,3-triazole], a half-maximal effect (EC50) was put at 337 nM and the Emax was found to be 86%.
Taken in the same sequence, the figures for `CCC(F)(F)c1cn(-c2ccc(-c3cccc(S(=O)(=O)NC)c3)cc2-n2nncc2-c2ccc(OC(F)(F)F)cc2)c(C)n1` [Example 185, 4′-[4-(1,1-difluoropropyl)-2-methyl-1H-imidazol-1-yl]-N-methyl-3′-(5-{4-[(trifluoromethyl)oxy]phenyl}-1H-1,2,3-triazol-1-yl)biphenyl-3-sulfonamide] were 297 nM and 77%.
Taken in the same sequence, the figures for `CCC(F)(F)c1cn(-c2ccc(-c3cc(F)c(CO)c(S(C)(=O)=O)c3)cc2-n2nncc2-c2ccc(OC(F)(F)F)cc2)c(C)n1` [Example 186, {4′-[4-(1,1-difluoropropyl)-2-methyl-1H-imidazol-1-yl]-3-fluoro-5-(methylsulfonyl)-3′-(5-{4-[(trifluoromethyl)oxy]phenyl}-1H-1,2,3-txiazol-1-yl)biphenyl-4-yl}methanol] were 168 nM and 81%.
`CS(=O)(=O)c1cccc(-c2cc(F)c(-n3cnc(C(F)(F)F)c3)c(-n3nncc3-c3ccc(Cl)cc3)c2)c1` [Example 187, 5-(4-chlorophenyl)-1-{5-fluoro-3′-(methylsulfonyl)-4-[4-(trifluoromethyl)-1H-imidazol-1-yl]biphenyl-3-yl}-1H-1,2,3-triazole]: the 50% effective concentration (EC50) worked out at 518 nM and the Emax is 92%.
Taken in the same sequence, the figures for `CS(=O)(=O)c1cccc(-c2cc(F)c(-n3cnc(C(F)(F)F)c3)c(-n3nncc3-c3ccc(OC(F)(F)F)cc3)c2)c1` [Example 188, 1-{5-fluoro-3′-(methylsulfonyl)-4-[4-(trifluoromethyl)-1H-imidazol-1-yl]biphenyl-3-yl}-5-{4-[(trifluoromethyl)oxy]phenyl}-1H-1,2,3-triazole] were 1750 nM and 89%.
Taken in the same sequence, the figures for `CS(=O)(=O)c1cc(-c2cc(F)c(-n3cnc(C(F)(F)F)c3)c(-n3nncc3-c3ccc(OC(F)(F)F)cc3)c2)cc(F)c1CO` [Example 189, [3,3′-difluoro-5-(methylsulfonyl)-4′-[4-(trifluoromethyl)-1H-imidazol-1-yl]-5′-(5-{4-[(trifluoromethyl)oxy]phenyl}-1H-1,2,3-triazol-1-yl)biphenyl-4-yl]methanol] were 1790 nM and 95%.
For `CS(=O)(=O)c1cc(-c2cc(F)c(-n3cnc(C(F)(F)F)c3)c(-n3nncc3-c3ccc(Cl)cc3Cl)c2)cc(F)c1CO` [Example 190, {3′-[5-(2,4-dichlorophenyl)-1H-1,2,3-triazol-1-yl]-3,5′-difluoro-5-(methylsulfonyl)-4′-[4-(trifluoromethyl)-1H-imidazol-1-yl]biphenyl-4-yl}methanol], in that order: 208 nM and 119%.
For `CS(=O)(=O)c1cccc(-c2cc(F)c(-n3cnc(C(F)(F)F)c3)c(-n3nncc3-c3ccc(Cl)cc3Cl)c2)c1` [Example 191, 5-(2,4-dichlorophenyl)-1-{5-fluoro-3′-(methylsulfonyl)-4-[4-(trifluoromethyl)-1H-imidazol-1-yl]biphenyl-3-yl}-1H-1,2,3-triazole], the 50% effective concentration (EC50) amounted to 452 nM and the Emax stood at 102%.
For `CS(=O)(=O)c1cccc(-c2cc(Cl)c(-n3cnc(C(F)(F)F)c3)c(-n3nncc3-c3ccc(OC(F)(F)F)cc3)c2)c1` [Example 192, 1-{5-chloro-3′-(methylsulfonyl)-4-[4-(trifluoromethyl)-1H-imidazol-1-yl]biphenyl-3-yl}-5-{4-[(trifluoromethyl)oxy]phenyl}-1H-1,2,3-triazole], in that order: 598 nM and 42%.
For `CS(=O)(=O)c1cc(-c2cc(Cl)c(-n3cnc(C(F)(F)F)c3)c(-n3nncc3-c3ccc(OC(F)(F)F)cc3)c2)cc(F)c1CO` [Example 193, [3′-chloro-3-fluoro-5-(methylsulfonyl)-4′-[4-(trifluoromethyl)-1H-imidazol-1-yl]-5′-(5-{4-[(trifluoromethyl)oxy]phenyl}-1H-1,2,3-triazol-1-yl)biphenyl-4-yl]methanol], in that order: 598 nM and 62%.
Taken in the same sequence, the figures for `Cc1nc(C(F)(F)F)cn1-c1c(Cl)cc(-c2cccc(S(C)(=O)=O)c2)cc1-n1nncc1-c1ccc(OC(F)(F)F)cc1` [Example 195, 1-{5-chloro-3′-(methylsulfonyl)-4-[2-methyl-4-(trifluoromethyl)-1H-imidazol-1-yl]biphenyl-3-yl}-5-{4-[(trifluoromethyl)oxy]phenyl}-1H-1,2,3-triazole] were 574 nM and 83%.
Regarding `Cc1nc(C(F)(F)F)cn1-c1c(Cl)cc(-c2cc(F)c(CO)c(S(C)(=O)=O)c2)cc1-n1nncc1-c1ccc(OC(F)(F)F)cc1` [Example 196, [3′-chloro-3-fluoro-5-(methylsulfonyl)-4′-[2-methyl-4-(trifluoromethyl)-1H-imidazol-1-yl]-5′-(5-{4-[(trifluoromethyl)oxy]phenyl}-1H-1,2,3-triazol-1-yl)biphenyl-4-yl]methanol], the EC50 stood at 241 nM and the Emax was 68%.
Taken in the same sequence, the figures for `Cc1nc(C(F)(F)F)cn1-c1c(F)cc(-c2cc(Cl)c(CO)c(S(C)(=O)=O)c2)cc1-n1nncc1-c1ccc(OC(F)(F)F)cc1` [Example 197, [3-chloro-3′-fluoro-5-(methylsulfonyl)-4′-[2-methyl-4-(trifluoromethyl)-1H-imidazol-1-yl]-5′-(5-{4-[(trifluoromethyl)oxy]phenyl}-1H-1,2,3-triazol-1-yl)biphenyl-4-yl]methanol] were 252 nM and 76%.
For `Cc1nc(C(F)(F)F)cn1-c1c(F)cc(-c2cc(F)c(CO)c(S(C)(=O)=O)c2)cc1-n1nncc1-c1ccc(Cl)cc1` [Example 198, {3′-[5-(4-chlorophenyl)-1H-1,2,3-triazol-1-yl]-3,5′-difluoro-5-(methylsulfonyl)-4′-[2-methyl-4-(trifluoromethyl)-1H-imidazol-1-yl]biphenyl-4-yl}methanol], in that order: 92 nM and 87%.
